Experimental data published in ChEMBL document CHEMBL1142214, “Synergistic interaction between phenothiazines and antimicrobial agents against Burkholderia pseudomallei” (2007).
In brackets after ≈: the same amount, converted by molar mass.

Key:
Format in all cases: functional
[1] = system: Burkholderia pseudomallei; test: Antimicrobial activity against Burkholderia pseudomallei KHW
[2] = system: Burkholderia pseudomallei; test: Antimicrobial activity against Burkholderia pseudomallei KHW in presence of 500 uM prochlorperazine
[3] = system: Burkholderia pseudomallei; test: Antimicrobial activity against Burkholderia pseudomallei KHW in presence of 250 uM promazine
[4] = system: Burkholderia pseudomallei; test: Antimicrobial activity against Burkholderia pseudomallei KHW in presence of 500 uM promazine
[5] = system: Burkholderia pseudomallei; test: Antimicrobial activity against Burkholderia pseudomallei KHW in presence of 500 uM omeprazole
[6] = system: Burkholderia pseudomallei; test: Antimicrobial activity against Burkholderia pseudomallei KHW in presence of 7.8 uM omeprazole
[7] = system: Burkholderia pseudomallei; test: Antimicrobial activity against Burkholderia pseudomallei KHW in presence of 31.3 uM promazine
[8] = system: Burkholderia pseudomallei; test: Antimicrobial activity against Burkholderia pseudomallei KHW in presence of 7.8 uM chlorpromazine
[9] = system: Burkholderia pseudomallei; test: Antimicrobial activity against Burkholderia pseudomallei KHW in presence of 125 uM promazine
[10] = system: Burkholderia pseudomallei; test: Antimicrobial activity against Burkholderia pseudomallei KHW in presence of 15.6 uM omeprazole
[11] = system: Burkholderia pseudomallei; test: Antimicrobial activity against Burkholderia pseudomallei KHW in presence of 62.5 uM prochlorperazine
[12] = system: Burkholderia pseudomallei; test: Antimicrobial activity against Burkholderia pseudomallei KHW in presence of 31.3 uM prochlorperazine
[13] = system: Burkholderia pseudomallei; test: Antimicrobial activity against Burkholderia pseudomallei KHW in presence of 125 uM chlorpromazine
[14] = system: Burkholderia pseudomallei; test: Antimicrobial activity against Burkholderia pseudomallei KHW in presence of 31.3 uM omeprazole
[15] = system: Burkholderia pseudomallei; test: Antimicrobial activity against Burkholderia pseudomallei KHW in presence of 125 uM omeprazole
[16] = system: Burkholderia pseudomallei; test: Antimicrobial activity against Burkholderia pseudomallei KHW in presence of 3.9 uM prochlorperazine
[17] = system: Burkholderia pseudomallei; test: Antimicrobial activity against Burkholderia pseudomallei KHW in presence of 250 uM prochlorperazine
[18] = system: Burkholderia pseudomallei; test: Antimicrobial activity against Burkholderia pseudomallei KHW in presence of 7.8 uM promazine
[19] = system: Burkholderia pseudomallei; test: Antimicrobial activity against Burkholderia pseudomallei KHW in presence of 15.6 uM chlorpromazine
[20] = system: Burkholderia pseudomallei; test: Antimicrobial activity against Burkholderia pseudomallei KHW in presence of 1000 uM prochlorperazine
[21] = system: Burkholderia pseudomallei; test: Antimicrobial activity against Burkholderia pseudomallei KHW in presence of 15.6 uM promazine
[22] = system: Burkholderia pseudomallei; test: Antimicrobial activity against Burkholderia pseudomallei KHW in presence of 250 uM omeprazole
[23] = system: Burkholderia pseudomallei; test: Antimicrobial activity against Burkholderia pseudomallei KHW in presence of 7.8 uM prochlorperazine
[24] = system: Burkholderia pseudomallei; test: Antimicrobial activity against Burkholderia pseudomallei KHW in presence of 1000 uM omeprazole
[25] = system: Burkholderia pseudomallei; test: Antimicrobial activity against Burkholderia pseudomallei KHW in presence of 125 uM prochlorperazine
[26] = system: Burkholderia pseudomallei; test: Antimicrobial activity against Burkholderia pseudomallei KHW in presence of 1000 uM promazine
[27] = system: Burkholderia pseudomallei; test: Antimicrobial activity against Burkholderia pseudomallei KHW in presence of 62.5 uM omeprazole
[28] = system: Burkholderia pseudomallei; test: Antimicrobial activity against Burkholderia pseudomallei KHW in presence of 500 uM chlorpromazine
[29] = system: Burkholderia pseudomallei; test: Antimicrobial activity against Burkholderia pseudomallei KHW in presence of 1000 uM chlorpromazine
[30] = system: Burkholderia pseudomallei; test: Antimicrobial activity against Burkholderia pseudomallei KHW in presence of 31.3 uM chlorpromazine
[31] = system: Burkholderia pseudomallei; test: Antimicrobial activity against Burkholderia pseudomallei KHW in presence of 3.9 uM promazine
[32] = system: Burkholderia pseudomallei; test: Antimicrobial activity against Burkholderia pseudomallei KHW in presence of 15.6 uM prochlorperazine
[33] = system: Burkholderia pseudomallei; test: Antimicrobial activity against Burkholderia pseudomallei KHW in presence of 3.9 uM omeprazole
[34] = system: Burkholderia pseudomallei; test: Antimicrobial activity against Burkholderia pseudomallei KHW in presence of 3.9 uM chlorpromazine
[35] = system: Burkholderia pseudomallei; test: Antimicrobial activity against Burkholderia pseudomallei KHW in presence of 62.5 uM chlorpromazine
[36] = system: Burkholderia pseudomallei; test: Antimicrobial activity against Burkholderia pseudomallei KHW in presence of 62.5 uM promazine
[37] = system: Burkholderia pseudomallei; test: Antimicrobial activity against Burkholderia pseudomallei KHW in presence of 250 uM chlorpromazine

In the case of `CO[C@H]1C[C@H](O[C@H]2[C@H](C)[C@@H](O[C@@H]3O[C@H](C)C[C@H](N(C)C)[C@H]3O)[C@@H](C)C[C@@]3(CO3)C(=O)[C@H](C)[C@@H](O)[C@@H](C)[C@@H](C)OC(=O)[C@@H]2C)O[C@@H](C)[C@@H]1O` [OLEANDOMYCIN], the MIC [1] was > 2000 µg/mL, the MIC [2] was 64 µg/mL and the MIC [3] was > 2000 µg/mL. For the same molecule, the MIC [4] was 256 µg/mL, the MIC [5] was > 2000 µg/mL and the MIC [6] was > 2000 µg/mL. The MIC [7] was > 2000 µg/mL, the MIC [8] was > 2000 µg/mL and the MIC [9] was > 2000 µg/mL. For the same molecule, the MIC [10] was > 2000 µg/mL, the MIC [11] was 256 µg/mL and the MIC [12] was 512 µg/mL. For the same molecule, the MIC [13] was 512 µg/mL, the MIC [14] was > 2000 µg/mL and the MIC [15] was > 2000 µg/mL. For the same molecule, the MIC [16] was > 2000 µg/mL, the MIC [17] was 128 µg/mL and the MIC [18] was > 2000 µg/mL. For the same molecule, the MIC [19] was > 2000 µg/mL, the MIC [20] was 64 µg/mL and the MIC [21] was > 2000 µg/mL. For the same molecule, the MIC [22] was > 2000 µg/mL, the MIC [23] was > 2000 µg/mL and the MIC [24] was < 0.25 µg/mL. The MIC [25] was 256 µg/mL, the MIC [26] was 0.5 µg/mL and the MIC [27] was > 2000 µg/mL. For the same molecule, the MIC [28] was 128 µg/mL, the MIC [29] was < 0.25 µg/mL and the MIC [30] was > 2000 µg/mL. The MIC [31] was > 2000 µg/mL, the MIC [32] was 512 µg/mL and the MIC [33] was > 2000 µg/mL. For the same molecule, the MIC [34] was > 2000 µg/mL, the MIC [35] was 1020 µg/mL and the MIC [36] was > 2000 µg/mL. For the same molecule, the MIC [37] was 256 µg/mL.
`CN[C@@H]1[C@H](O)[C@H](NC)[C@H]2O[C@@]3(O)C(=O)C[C@@H](C)O[C@H]3O[C@@H]2[C@H]1O` [SPECTINOMYCIN] was tested, and the MIC [1] was 256 µg/mL (≈ 770 µM), the MIC [2] was < 0.25 µg/mL and the MIC [6] was 256 µg/mL. The MIC [7] was 256 µg/mL, the MIC [8] was 256 µg/mL and the MIC [9] was 256 µg/mL. The MIC [10] was 256 µg/mL, the MIC [11] was 128 µg/mL and the MIC [12] was 256 µg/mL. It also gave an MIC [13] of 256 µg/mL, an MIC [14] of 256 µg/mL and an MIC [15] of 256 µg/mL. For the same molecule, the MIC [16] was 256 µg/mL, the MIC [17] was 32 µg/mL and the MIC [18] was 256 µg/mL. The MIC [19] was 256 µg/mL, the MIC [20] was < 0.25 µg/mL and the MIC [21] was 256 µg/mL. For the same molecule, the MIC [23] was 256 µg/mL, the MIC [24] was 32 µg/mL and the MIC [25] was 32 µg/mL. For the same molecule, the MIC [26] was < 0.25 µg/mL, the MIC [27] was 256 µg/mL and the MIC [28] was 32 µg/mL. The MIC [29] was < 0.25 µg/mL, the MIC [30] was 256 µg/mL and the MIC [31] was 256 µg/mL. The MIC [32] was 256 µg/mL, the MIC [33] was 256 µg/mL and the MIC [34] was 256 µg/mL. The MIC [35] was 256 µg/mL, the MIC [36] was 256 µg/mL and the MIC [37] was 128 µg/mL.
`CN[C@@H]1[C@H](O[C@H]2[C@H](O[C@H]3[C@H](O)[C@@H](O)[C@H](N=C(N)N)[C@@H](O)[C@@H]3N=C(N)N)O[C@@H](C)[C@]2(O)C=O)O[C@@H](CO)[C@H](O)[C@H]1O` [STREPTOMYCIN] was tested, and the MIC [1] was 1020 µg/mL (≈ 1760 µM), the MIC [2] was 256 µg/mL and the MIC [3] was 1020 µg/mL. It also gave an MIC [4] of 516 µg/mL, an MIC [5] of 1020 µg/mL and an MIC [6] of 1020 µg/mL. For the same molecule, the MIC [7] was 1020 µg/mL, the MIC [8] was 1020 µg/mL and the MIC [9] was 1020 µg/mL. For the same molecule, the MIC [10] was 1020 µg/mL, the MIC [11] was 1020 µg/mL and the MIC [12] was 1020 µg/mL. It also gave an MIC [13] of 1020 µg/mL, an MIC [14] of 1020 µg/mL and an MIC [15] of 1020 µg/mL. For the same molecule, the MIC [16] was 1020 µg/mL, the MIC [17] was 512 µg/mL and the MIC [18] was 1020 µg/mL. It also gave an MIC [19] of 1020 µg/mL, an MIC [20] of 256 µg/mL and an MIC [21] of 1020 µg/mL. The MIC [22] was 1020 µg/mL, the MIC [23] was 1020 µg/mL and the MIC [24] was < 0.25 µg/mL. For the same molecule, the MIC [25] was 1020 µg/mL, the MIC [26] was 0.5 µg/mL and the MIC [27] was 1020 µg/mL. The MIC [28] was < 0.25 µg/mL, the MIC [29] was < 0.25 µg/mL and the MIC [30] was 1020 µg/mL. The MIC [31] was 1020 µg/mL, the MIC [32] was 1020 µg/mL and the MIC [33] was 1020 µg/mL. It also gave an MIC [34] of 1020 µg/mL, an MIC [35] of 1020 µg/mL and an MIC [36] of 1020 µg/mL. For the same molecule, the MIC [37] was 1020 µg/mL.
